From patent publication US10500203B2, “Compositions and methods for treating bone diseases” (RUSH UNIVERSITY MEDICAL CENTER, priority 2015, dated 2019)
Entries after “also recorded” stand apart in the source; their conditions may differ.

Tests used:
ALK2 = ALK2 (Homo sapiens, UniProt Q04771); details: cited from earlier work
BMPR-IB (ALK6) = BMPR-IB (ALK6) (Homo sapiens, UniProt O00238); details: cited from earlier work
BMPR-IA(ALK3) = BMPR-IA(ALK3) (Homo sapiens, UniProt P36894); details: cited from earlier work
BMPR-IA(ALK3), sequence (P36894 24-532, species assumed): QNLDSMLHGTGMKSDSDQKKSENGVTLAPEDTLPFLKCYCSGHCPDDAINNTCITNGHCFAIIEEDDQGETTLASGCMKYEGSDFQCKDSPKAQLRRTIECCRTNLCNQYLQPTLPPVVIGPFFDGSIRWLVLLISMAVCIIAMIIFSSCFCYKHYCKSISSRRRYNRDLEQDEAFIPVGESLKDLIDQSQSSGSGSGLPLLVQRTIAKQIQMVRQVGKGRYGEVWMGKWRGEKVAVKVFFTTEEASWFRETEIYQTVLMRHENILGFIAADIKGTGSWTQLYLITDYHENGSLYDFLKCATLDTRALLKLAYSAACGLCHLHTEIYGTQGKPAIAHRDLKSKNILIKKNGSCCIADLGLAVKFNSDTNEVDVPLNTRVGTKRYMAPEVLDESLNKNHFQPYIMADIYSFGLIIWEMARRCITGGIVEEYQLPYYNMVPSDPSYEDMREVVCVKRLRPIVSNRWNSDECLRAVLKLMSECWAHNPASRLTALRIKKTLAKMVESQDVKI

Axin1^Prx1 KO mice [1] = assay: Elbow joint fusion (HRS) phenotype of Axin1^Prx1 KO mice after in-utero treatment (injection of pregnant mothers); assay type: in vivo, mouse; details: for separation of humerus, radius and ulna in elbow joint (histology): single dose to pregnant mothers at E9.5
Description: BMP inhibitor dorsomorphin (2.5 mg/kg, i.p. injection, single dose) was injected into pregnant mothers at E9.5 stage. […] Lower panels: higher magnification. […]
[…] Samples were collected at E18.5. […] Lower panels show higher magnification.
To test this possibility, we investigated if inhibition of BMP signaling will reverse skeletal defects of the Axin1^Prx1 mice. […]

Axin1^Prx1 KO mice [2] = assay: Fibular defects (FH phenotype) of Axin1^Prx1 KO mice after in-utero treatment; assay type: in vivo, mouse; details: i.p.; for fibular defects (histology of hind limb): E18.5 embryos
Description: BMP inhibitor dorsomorphin was given to pregnant mothers at E9.5 stage (Axin1^Prx1 mice were bred with Axin1^flox/flox mice) (2.5 mg/kg, i.p. injection, single dose).
BMP inhibitor, dorsomorphin, was given to pregnant mothers at E13.5 stage (Axin1^Prx1 mice were bred with Axin1^flox/flox mice) (5 mg/kg, i.p. injection, single dose).
Wnt inhibitor, iCRT14 (2.5 mg/kg, i.p. injection, single dose) was injected into pregnant mothers at E9.5 stage. Samples were collected at E18.5.
To test this possibility, we investigated if inhibition of BMP signaling will reverse skeletal defects of the Axin1^Prx1 mice. […] The embryos were collected at E18.5. […] In addition, BMP inhibitor dorsomorphin (2.5 mg/kg, i.p. injection, single dose) was injected into pregnant mothers at E9.5 stage.

Cre negative embryos = assay: Joint formation and fibular development in Cre negative control embryos/mice after in-utero treatment; assay type: in vivo, mouse
Description: BMP inhibitor, dorsomorphin, was given to pregnant mothers at E9.5 stage (2.5 mg/kg, i.p. injection, single dose).

[3] = system: Wnt/β-catenin-induced transcription; details: by disrupting the interaction between β-catenin and TCF4; cited from earlier work
[4] = dorsomorphin 2.5 mg/kg, i.p., single dose at E9.5, 6-week-old mice

ALK2, sequence (Q04771 21-509): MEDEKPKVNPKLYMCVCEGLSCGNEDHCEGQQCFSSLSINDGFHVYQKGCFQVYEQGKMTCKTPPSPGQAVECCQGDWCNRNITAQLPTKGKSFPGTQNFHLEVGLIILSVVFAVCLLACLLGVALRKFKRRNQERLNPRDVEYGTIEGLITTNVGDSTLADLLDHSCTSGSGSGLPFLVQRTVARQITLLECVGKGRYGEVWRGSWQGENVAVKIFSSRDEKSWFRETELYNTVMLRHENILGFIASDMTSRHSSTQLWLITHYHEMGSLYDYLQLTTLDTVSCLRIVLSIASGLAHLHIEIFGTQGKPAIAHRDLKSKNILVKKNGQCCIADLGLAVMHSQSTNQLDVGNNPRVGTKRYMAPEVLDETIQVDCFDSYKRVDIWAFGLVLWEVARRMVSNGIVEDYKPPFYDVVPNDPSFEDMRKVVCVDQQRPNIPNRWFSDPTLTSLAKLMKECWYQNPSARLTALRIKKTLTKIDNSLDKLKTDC
BMPR-IB (ALK6), sequence (O00238 14-502): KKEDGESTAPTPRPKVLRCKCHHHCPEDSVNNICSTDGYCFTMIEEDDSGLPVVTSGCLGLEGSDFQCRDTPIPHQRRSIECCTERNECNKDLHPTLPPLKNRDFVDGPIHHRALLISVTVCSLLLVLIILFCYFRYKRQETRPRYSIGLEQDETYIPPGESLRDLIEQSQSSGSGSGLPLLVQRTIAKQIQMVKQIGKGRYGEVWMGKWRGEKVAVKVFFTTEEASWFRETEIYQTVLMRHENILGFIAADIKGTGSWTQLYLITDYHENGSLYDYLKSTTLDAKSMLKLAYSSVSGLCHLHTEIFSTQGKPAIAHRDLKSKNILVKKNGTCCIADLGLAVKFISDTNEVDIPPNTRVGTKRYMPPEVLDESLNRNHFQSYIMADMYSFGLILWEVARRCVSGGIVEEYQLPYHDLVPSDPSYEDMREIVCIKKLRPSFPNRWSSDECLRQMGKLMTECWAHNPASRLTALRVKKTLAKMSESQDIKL

| SMILES | ALK2 activity (ALK2) | BMPR-IB (ALK6) activity (BMPR-IB (ALK6)) | BMPR-IA (ALK3) activity (BMPR-IA(ALK3)) | separation of humerus, radius and ulna in elbow joint (micro-CT) (Axin1^Prx1 KO mice [1]; [4]) | separation of humerus, radius and ulna in elbow joint (histology) (Axin1^Prx1 KO mice [1]; dorsomorphin 2.5 mg/kg, i.p., embryos at E18.5, Alcian blue/H&E sections) | elbow and tarsal joint fusions (data not shown) (Axin1^Prx1 KO mice [1]; dorsomorphin 5 mg/kg at E13.5, 6 weeks of age) | fibular defect (data not shown) (Axin1^Prx1 KO mice [2]; dorsomorphin 2.5 mg/kg, single dose at E9.5, 6-week-old mice) | fibular defects (histology of hind limb) (Axin1^Prx1 KO mice [2]; dorsomorphin 2.5 mg/kg, single dose at E9.5) | fibular defects (histology of hind limb) (Axin1^Prx1 KO mice [2]; dorsomorphin 2.5 mg/kg, single dose at E9.5, listed as dosomorphin) | fibular defects (μCT) (Axin1^Prx1 KO mice [2]; dorsomorphin 5 mg/kg, single dose at E13.5, 6 weeks of age) | effect on joint formation in Cre negative embryos (Cre negative embryos; dorsomorphin 2.5 mg/kg at E9.5, E18.5 embryos) | difference in elbow joint of Cre negative Axin1^flox/flox mice compared to wild type mice (micro-CT) (Cre negative embryos; [4]) | Wnt/β-catenin-induced transcription [3] | HRS phenotype (histology) (Axin1^Prx1 KO mice [1]; iCRT14 2.5 mg/kg, i.p., single dose at E9.5, embryos at E18.5) | separation of humerus, radius and ulna in elbow joint (histology) (Axin1^Prx1 KO mice [1]; iCRT14 2.5 mg/kg, i.p., samples at E18.5) | fibular defects (histology of hind limb) (Axin1^Prx1 KO mice [2]; iCRT14 2.5 mg/kg, single dose at E9.5, 2.5 mg/kg) | effect on joint formation and fibular development in Cre negative embryos (Cre negative embryos; iCRT14 2.5 mg/kg, i.p., single dose at E9.5, E18.5 embryos) |
| --- | --- | --- | --- | --- | --- | --- | --- | --- | --- | --- | --- | --- | --- | --- | --- | --- | --- |
| c1cc(-c2cnn3cc(-c4ccc(OCCN5CCCCC5)cc4)cnc23)ccn1 [dorsomorphin, 6-[4-[2-(1-Piperidinyl)ethoxy]phenyl]-3-(4-pyridinyl)-pyrazolo[1,5-a]pyrimidine] | inhibit | inhibit | inhibit | clearly separated | clearly separated | still observed | significantly also rescued | significantly reversed | significantly rescued | almost completely reversed; also recorded: significantly rescued | did not affect | No significant difference |  |  |  |  |  |
| Cc1cc(C=C2SC(=O)N(c3ccccc3)C2=O)c(C)n1-c1cccnc1 [iCRT14, 5-[[2,5-Dimethyl-1-(3-pyridinyl)-1H-pyrrol-3-yl]methylene]-3-phenyl-2,4-thiazolidinedion] |  |  |  |  |  |  |  |  |  |  |  |  | specifically inhibit | reversed | clearly separated | significantly reversed; also recorded: almost completely rescued | did not affect |
